In patent US20100196321A1, “COMPOUNDS” (GLAXOSMITHKLINE LLC, priority 2009, published 2010):

Assays:
[1] = tested on: sub-genomic HCV NS3-NS5B replicon of genotype 1a in Huh-7 cells; experiment: Replicon Luciferase Cell Based Assay, genotype 1a; parameters: species or system HCV genotype 1a; settings: Hepatitis C virus, Huh-7, 48 hours
Protocol: (§1) A 10 mM stock solution in DMSO of each test compound was further diluted in DMSO in the first row of a 384-well, V-bottom microplate, to give 100 times the top concentration of the required dilution series. Dilutions of compound were prepared in 1:3 serial dilutions from the first row onwards robotically. A robot was also used to transfer 0.5 μL volumes from each dilution well into wells of white 384-well assay plates (Nunc #164610). Control wells received 0.5 μL of DMSO alone. Plates were made in duplicate for measuring HCV replication and cytotoxicity in the replicon cell lines.
(§2) Suspensions were prepared from cultures of Huh-7 cells stably transfected with sub-genomic HCV NS3—NS5B replicons of either genotype 1b (the ET subline described by Pietschmann, T., Lohmann, V., Kaul, A., Krieger, N., Rinck, G., Rutter, G., Strand, D. & Bartenschlager, R., Journal of Virology, 2002, 76, 4008-4021) or genotype 1a linked to a firefly luciferase reporter gene. Monolayers nearing confluency were stripped from growth flasks with versene-trypsin solution and the cells re-suspended in assay medium comprising DMEM (Invitrogen #11965-092) supplemented with 5% v/v foetal calf serum, 1% v/v non-essential amino acids solution, 100 units/ml penicillin, 100 μg/ml streptomycin and 2 mM GlutaMAX-1. 50 μL of suspension containing 5,000 cells of either genotype 1b or genotype 1a luciferase replicon were added to all wells, except medium controls, of the assay plate with a Multidrop Combi (Thermo Scientific Corporation) and the plate incubated for 48 hours at 37° C. in a 5% CO2 atmosphere. A solution of Steady-Glo cytolytic buffer/luciferase substrate (Promega #E2550) was prepared according to the manufacturer's instructions, and 20 μL were added to each well with a Multidrop Combi. To measure cytotoxicity, a solution of CellTiter-Glo Luminescent Cell Viability Assay reagent (Promega #G7573) was prepared according to the manufacturer's instructions, and 20 ul were added to each well with a Multidrop Combi. The plates were then read for luminescence on an Envision Multilabel Reader (Perkin Elmer)
(§3) Potency: The luminescence values from all compound-free wells containing cells were averaged to obtain a positive control value. The mean luminescence value from the compound-free wells that had received no cells was used to provide the negative (background) control value. After the subtraction of the mean background from all values, the readings from wells at each compound concentration were expressed as a percentage of the positive control signal. The quantifiable and specific reduction of luciferase signal in the presence of a drug is a direct measure of replicon inhibition. The BioAssay application and XC50 module were used to plot the curve of percentage inhibition against compound concentration and derive the 50% inhibitory concentration (IC50) for the compound.

[2] = tested on: sub-genomic HCV NS3-NS5B replicon of genotype 1b (ET subline) in Huh-7 cells; experiment: Replicon Luciferase Cell Based Assay, genotype 1b; parameters: species or system HCV genotype 1b; settings: Hepatitis C virus, Huh-7, 48 h, read-out: Genotype 1b (IC50 μM)
Protocol: as §1, §2, §3

Q: `CCN(CC)C(=O)N[C@H]1CCCCC/C=C\[C@@H]2C[C@@]2(C(=O)NS(=O)(=O)C2CC2)NC(=O)[C@@H]2C[C@@H](Oc3cc(-c4nc(C(C)C)cs4)nc4c(C)c(OC)ccc34)CN2C1=O` [Example 2, (2R,6S,13aS,14aR,16aS)-N-(cyclopropylsulfonyl)-6-{[(diethylamino)carbonyl]amino}-2-{[8-methyl-2-[4-(1-methylethyl)-1,3-thiazol-2-yl]-7-(methyloxy)-4-quinolinyl]oxy}-5,16-dioxo-1,2,3,6,7,8,9,10,11,13a,14,15,16,16a-tetradecahydrocyclopropa[e]pyrrolo[1,2-a][1,4]diazacyclopentadecine-14a(5H)-carboxamide] was tested. Which IC50 [1] did it give?
A: < 0.01 µM

Q: What about the IC50 [2] of the same compound?
A: < 0.01 µM

Q: For `COc1ccc2c(O[C@@H]3C[C@H]4C(=O)N[C@]5(C(=O)NS(=O)(=O)C6CC6)C[C@H]5/C=C\CCCCC[C@H](NC(=O)N(C(C)C)C(C)C)C(=O)N4C3)cc(-c3nc(C4CC4)cs3)nc2c1C` [Example 8, (2R,6S,13aS,14aR,16aS)-6-({[bis(1-methylethyl)amino]carbonyl}amino)-N-(cyclopropylsulfonyl)-2-{[2-(4-cyclopropyl-1,3-thiazol-2-yl)-8-methyl-7-(methyloxy)-4-quinolinyl]oxy}-5,16-dioxo-1,2,3,6,7,8,9,10,11,13a,14,15,16,16a-tetradecahydrocyclopropa[e]pyrrolo[1,2-a][1,4]diazacyclopentadecine-14a(5H)-carboxamide], which IC50 [1] is on record?
A: < 0.01 µM

Q: What about the IC50 [2] of the same compound?
A: < 0.01 µM

Q: With `COc1ccc2c(O[C@@H]3C[C@H]4C(=O)N[C@]5(C(=O)NS(=O)(=O)C6CC6)C[C@H]5/C=C\CCCCC[C@H](NC(=O)N5CCC(CO)CC5)C(=O)N4C3)cc(-c3nc(C(C)C)cs3)nc2c1C` [Example 25, (2R,6S,13aS,14aR,16aS)-N-(cyclopropylsulfonyl)-6-({[4-(hydroxymethyl)-1-piperidinyl]carbonyl}amino)-2-{[8-methyl-2-[4-(1-methylethyl)-1,3-thiazol-2-yl]-7-(methyloxy)-4-quinolinyl]oxy}-5,16-dioxo-1,2,3,6,7,8,9,10,11,13a,14,15,16,16a-tetradecahydrocyclopropa[e]pyrrolo[1,2-a][1,4]diazacyclopentadecine-14a(5H)-carboxamide] as the compound, how does the IC50 [1] read?
A: < 0.01 µM

Q: And the IC50 [2]?
A: < 0.01 µM

Q: How did the IC50 [1] turn out when `COc1ccc2c(O[C@@H]3C[C@H]4C(=O)N[C@]5(C(=O)NS(=O)(=O)C6CC6)C[C@H]5/C=C\CCCCC[C@H](NC(=O)N(C)C(C)C)C(=O)N4C3)cc(-c3nc(C4CC4)cs3)nc2c1C` [Example 7, (2R,6S,13aS,14aR,16aS)-N-(cyclopropylsulfonyl)-2-{[2-(4-cyclopropyl-1,3-thiazol-2-yl)-8-methyl-7-(methyloxy)-4-quinolinyl]oxy}-6-({[methyl(1-methylethyl)amino]carbonyl}amino)-5,16-dioxo-1,2,3,6,7,8,9,10,11,13a,14,15,16,16a-tetradecahydrocyclopropa[e]pyrrolo[1,2-a][1,4]diazacyclopentadecine-14a(5H)-carboxamide] was run?
A: < 0.01 µM

Q: What about the IC50 [2] of the same compound?
A: < 0.01 µM

Q: How did the IC50 [1] turn out when `COc1ccc2c(O[C@@H]3C[C@H]4C(=O)N[C@]5(C(=O)NS(=O)(=O)C6CC6)C[C@H]5/C=C\CCCCC[C@H](NC(=O)N5CC(F)(F)C5)C(=O)N4C3)cc(-c3nc(C4CC4)cs3)nc2c1C` [Example 33, (2R,6S,13aS,14aR,16aS,Z)-N-(cyclopropylsulfonyl)-2-(2-(4-cyclopropylthiazol-2-yl)-7-methoxy-8-methylquinolin-4-yloxy)-6-(3,3-difluoroazetidine-1-carboxamido)-5,16-dioxo-1,2,3,5,6,7,8,9,10,11,13a,14,14a,15,16,16a-hexadecahydrocyclopropa[e]pyrrolo[1,2-a][1,4]diazacyclopentadecine-14a-carboxamide] was run?
A: < 0.01 µM

Q: What about the IC50 [2] of the same compound?
A: < 0.01 µM

Q: Which results are given for `CCN(CC)C(=O)N[C@H]1CCCCC/C=C\[C@@H]2C[C@@]2(C(=O)NS(=O)(=O)C2CC2)NC(=O)[C@@H]2C[C@@H](Oc3cc(-c4nc(C(F)(F)F)cs4)nc4c(Cl)c(OC)ccc34)CN2C1=O` [Example 29, Cycloprobanesulfonic acid [18-[8-chloro-7-methoxy-2-(4-trifluoromethyl-thiazol-2-yl)-quinolin-4-yloxy]-14-(3,3-diethyl-ureido)-2,15-dioxo-3,16-diaza-tricyclo[14.3.0.04,6]nonadec-7-ene-4-carbonyl]-amide]?
A: IC50 [1]: < 0.01 µM; IC50 [2]: < 0.01 µM

Q: `CCCN(CC1CC1)C(=O)N[C@H]1CCCCC/C=C\[C@@H]2C[C@@]2(C(=O)NS(=O)(=O)C2CC2)NC(=O)[C@@H]2C[C@@H](Oc3cc(-c4nc(C(C)C)cs4)nc4c(C)c(OC)ccc34)CN2C1=O` [Example 19, (2R,6S,13aS,14aR,16aS)-6-({[(cyclopropylmethyl)(propyl)amino]carbonyl}amino)-N-(cyclopropylsulfonyl)-2-{[8-methyl-2-[4-(1-methylethyl)-1,3-thiazol-2-yl]-7-(methyloxy)-4-quinolinyl]oxy}-5,16-dioxo-1,2,3,6,7,8,9,10,11,13a,14,15,16,16a-tetradecahydrocyclopropa[e]pyrrolo[1,2-a][1,4]diazacyclopentadecine-14a(5H)-carboxamide] was tested. Which IC50 [1] did it give?
A: < 0.01 µM

Q: And the IC50 [2]?
A: < 0.01 µM

Q: `COc1ccc2c(O[C@@H]3C[C@H]4C(=O)N[C@]5(C(=O)NS(=O)(=O)C6CC6)C[C@H]5/C=C\CCCCC[C@H](NC(=O)N5CCS(=O)(=O)CC5)C(=O)N4C3)cc(-c3nc(C(C)C)cs3)nc2c1C` [Example 12, (2R,6S,13aS,14aR,16aS)-N-(cyclopropylsulfonyl)-6-{[(1,1-dioxido-4-thiomorpholinyl)carbonyl]amino}-2-{[8-methyl-2-[4-(1-methylethyl)-1,3-thiazol-2-yl]-7-(methyloxy)-4-quinolinyl]oxy}-5,16-dioxo-1,2,3,6,7,8,9,10,11,13a,14,15,16,16a-tetradecahydrocyclopropa[e]pyrrolo[1,2-a][1,4]diazacyclopentadecine-14a(5H)-carboxamide] was tested. Which IC50 [1] did it give?
A: < 0.01 µM

Q: And the IC50 [2]?
A: < 0.01 µM

Q: Which results are given for `CCN(C(=O)N[C@H]1CCCCC/C=C\[C@@H]2C[C@@]2(C(=O)NS(=O)(=O)C2CC2)NC(=O)[C@@H]2C[C@@H](Oc3cc(-c4nc(C5CC5)cs4)nc4c(C)c(OC)ccc34)CN2C1=O)C(C)C` [Example 5, (2R,6S,13aS,14aR,16aS)-N-(cyclopropylsulfonyl)-2-{[2-(4-cyclopropyl-1,3-thiazol-2-yl)-8-methyl-7-(methyloxy)-4-quinolinyl]oxy}-6-({[ethyl(1-methylethyl)amino]carbonyl}amino)-5,16-dioxo-1,2,3,6,7,8,9,10,11,13a,14,15,16,16a-tetradecahydrocyclopropa[e]pyrrolo[1,2-a][1,4]diazacyclopentadecine-14a(5H)-carboxamide]?
A: IC50 [1]: < 0.01 µM; IC50 [2]: < 0.01 µM

Q: Which results are given for `COc1ccc2c(O[C@@H]3C[C@H]4C(=O)N[C@]5(C(=O)NS(=O)(=O)C6CC6)C[C@H]5/C=C\CCCCC[C@H](NC(=O)N5CCCCC5)C(=O)N4C3)cc(-c3nc(C4CC4)cs3)nc2c1C` [Example 31, (2R,6S,13aS,14aR,16aS,Z)-N-(cyclopropylsulfonyl)-2-(2-(4-cyclopropylthiazol-2-yl)-7-methoxy-8-methylquinolin-4-yloxy)-5,16-dioxo-6-(piperidine-1-carboxamido)-1,2,3,5,6,7,8,9,10,11,13a,14,14a,15,16,16a-hexadecahydrocyclopropa[e]pyrrolo[1,2-a][1,4]diazacyclopentadecine-14a-carboxamide]?
A: IC50 [1]: < 0.01 µM; IC50 [2]: < 0.01 µM

Q: How did the IC50 [1] turn out when `COc1ccc2c(O[C@@H]3C[C@H]4C(=O)N[C@]5(C(=O)NS(=O)(=O)C6CC6)C[C@H]5/C=C\CCCCC[C@H](NC(=O)N5CCC(N6CCCC6)CC5)C(=O)N4C3)cc(-c3nc(C(C)C)cs3)nc2c1C` [Example 21, (2R,6S,13aS,14aR,16aS)-N-(cyclopropylsulfonyl)-2-{[8-methyl-2-[4-(1-methylethyl)-1,3-thiazol-2-yl]-7-(methyloxy)-4-quinolinyl]oxy}-5,16-dioxo-6-({[4-(1-pyrrolidinyl)-1-piperidinyl]carbonyl}amino)-1,2,3,6,7,8,9,10,11,13a,14,15,16,16a-tetradecahydrocyclopropa[e]pyrrolo[1,2-a][1,4]diazacyclopentadecine-14a(5H)-carboxamide] was run?
A: < 0.01 µM

Q: What about the IC50 [2] of the same compound?
A: < 0.01 µM
